How the values were obtained:
Assay type in all cases: toxicity, cell-based
HEK-293T = assay: Incucyte cell viability with HEK293T; settings: human, 10 µM, compound concentration 10 uM
Fibroblast = assay: Incucyte cell viability with human fibroblast; settings: 10 µM, compound concentration 10 uM
U2OS = assay: Incucyte cell viability with U2OS; settings: human, 10 µM, compound concentration 10 uM
Note: unitless GR value; below 1 slowed growth and below 0 cell loss.

SMILES | Growth Rate (HEK-293T; 12 h, replicate number 1) | Growth Rate (HEK-293T; 12 h, replicate number 2) | Growth Rate (HEK-293T; 18 h, replicate number 1) | Growth Rate (HEK-293T; 18 h, replicate number 2) | Growth Rate (HEK-293T; 24 h, replicate number 1) | Growth Rate (HEK-293T; 24 h, replicate number 2) | Growth Rate (Fibroblast; 0 h, replicate number 2) | Growth Rate (Fibroblast; 6 h, replicate number 1) | Growth Rate (Fibroblast; 6 h, replicate number 2) | Growth Rate (Fibroblast; 12 h, replicate number 1) | Growth Rate (Fibroblast; 12 h, replicate number 2) | Growth Rate (Fibroblast; 18 h, replicate number 1) | Growth Rate (Fibroblast; 18 h, replicate number 2) | Growth Rate (Fibroblast; 24 h, replicate number 1) | Growth Rate (Fibroblast; 24 h, replicate number 2) | Growth Rate (U2OS; 0 h, replicate number 2) | Growth Rate (U2OS; 6 h, replicate number 1) | Growth Rate (U2OS; 12 h, replicate number 1) | Growth Rate (U2OS; 24 h, replicate number 1) | Growth Rate (U2OS; 24 h, replicate number 2) | other results
CCN1C(=O)N(c2c(F)c(OC)cc(OC)c2F)Cc2cnc3[nH]c(CN4CCOCC4)cc3c21 [PEMIGATINIB] | 0.76 | 0.59 | 0.68 | 0.33 | 0.57 | 0.3 | 0.11 | 0.04 | 0.12 | 0.42 | 0.45 | 0.23 | 0.53 | 0.19 | 0.49 | -0.02 | 0.58 | -0.36 | 0.62 | 0.19 | Growth Rate (HEK-293T; 0 h, replicate number 1): 0; Growth Rate (HEK-293T; 6 h, replicate number 2): 0.25; Growth Rate (U2OS; 0 h, replicate number 1): -0.31; Growth Rate (U2OS; 6 h, replicate number 2): -0.01; Growth Rate (U2OS; 12 h, replicate number 2): 0.07; Growth Rate (U2OS; 18 h, replicate number 1): 0.5; Growth Rate (U2OS; 18 h, replicate number 2): 0.2
Cc1noc(C)c1-c1cnc2c(-c3ccc(C(=O)O)cc3)cn([C@@H](C)c3ccccn3)c2c1 [PLX-51107] |  | 0.89 |  | 0.62 | 0.93 | 0.48 | -0.82 |  | -0.59 | -0.99 | 0.35 | -0.39 | 0.36 | -0.1 | 0.49 | -0.91 | 0.16 | 0.94 | 0.93 | 1 | Growth Rate (HEK-293T; 0 h, replicate number 1): 0.25; Growth Rate (Fibroblast; 0 h, replicate number 1): -0.53; Growth Rate (U2OS; 0 h, replicate number 1): -0.72
O=C(CCSCc1ccco1)NNC(=O)N1Cc2ccccc2Oc2ccc(Cl)cc21 |  |  | 0.93 |  | 0.96 |  |  | 0.64 | -0.43 | 0.82 | 0.45 | 0.92 | 0.53 | 0.8 | 0.72 |  | 0.95 |  |  | 0.92 | Growth Rate (Fibroblast; 0 h, replicate number 1): -1; Growth Rate (U2OS; 12 h, replicate number 2): 0.92
COc1ccc(CC(=O)NCc2ccccc2-c2ccccc2C(=O)NCc2ccc(F)cc2F)cc1 |  |  |  |  |  |  | -0.36 |  |  |  |  | 0.19 | 0.88 |  | 0.91 | -0.96 |  |  | 0.89 |  | Growth Rate (HEK-293T; 0 h, replicate number 1): 0.52; Growth Rate (U2OS; 0 h, replicate number 1): -0.79
CC(=O)c1c(C)c2cnc(Nc3ccn(C)n3)nc2n(C2CCCC2)c1=O | 0.97 | 0.81 | 0.9 | 0.79 | 0.79 | 0.83 |  |  | 0.93 |  |  | 0.8 |  |  |  |  | 0.67 | 0.06 |  |  | Growth Rate (HEK-293T; 0 h, replicate number 1): 0.51; Growth Rate (HEK-293T; 6 h, replicate number 1): 0.81; Growth Rate (HEK-293T; 6 h, replicate number 2): 0.76; Growth Rate (U2OS; 6 h, replicate number 2): 0.96; Growth Rate (U2OS; 12 h, replicate number 2): 0.99; Growth Rate (U2OS; 18 h, replicate number 2): 0.92
CC1(C)CC(=O)c2c(SCCO)sc(-c3nccs3)c2C1 |  |  |  |  |  |  | -0.3 | -1 |  |  |  |  |  |  |  |  | 0.66 | 0.87 |  | 0.97 | Growth Rate (HEK-293T; 0 h, replicate number 2): 0.82; Growth Rate (U2OS; 18 h, replicate number 1): 0.97
CC[C@@H](Nc1c(C#N)c(-c2ccc(-c3cccc(C)c3F)cc2)nc2cnccc12)C(=O)O [BAY-091] | 0.65 | 0.85 | 0.86 | 0.85 | 0.78 | 0.88 | -0.33 | 0.59 | 0.39 | 0.86 | 0.58 | 0.96 | 0.73 | 0.88 | 0.84 |  | 0.82 | 0.7 | 0.81 |  | Growth Rate (HEK-293T; 0 h, replicate number 2): 0.76; Growth Rate (HEK-293T; 6 h, replicate number 1): 0.68; Growth Rate (HEK-293T; 6 h, replicate number 2): 0.63; Growth Rate (Fibroblast; 0 h, replicate number 1): -0.38; Growth Rate (U2OS; 18 h, replicate number 1): 0.68
CC(CNS(=O)(=O)C(C)C)c1ccc(-c2ccc(C#N)cc2)cc1 (stereo not drawn) | -0.18 | -0.01 | 0 | 0.16 | 0.05 | 0.22 |  | 0.92 | -0.76 | -0.89 | 0.02 | -0.2 | 0.43 | 0.14 | 0.51 | 0.02 |  | 0.81 | 0.9 | 0.84 | Growth Rate (HEK-293T; 6 h, replicate number 1): -0.35; Growth Rate (Fibroblast; 0 h, replicate number 1): 0.04; Growth Rate (U2OS; 12 h, replicate number 2): 0.82; Growth Rate (U2OS; 18 h, replicate number 1): 0.83; Growth Rate (U2OS; 18 h, replicate number 2): 0.73
Cc1nc2c([nH]1)c(=O)n(C)c(=O)n2Cc1ccco1 [FURAFYLLINE] | 0.18 | 0.76 | 0.7 | 0.82 | 0.87 | 0.88 | -0.99 | 0.42 |  | -1 |  | 0.5 |  | 0.65 |  | -0.96 |  | 0.95 |  |  | Growth Rate (HEK-293T; 6 h, replicate number 1): 0.19; Growth Rate (HEK-293T; 6 h, replicate number 2): 0.63; Growth Rate (U2OS; 0 h, replicate number 1): -0.64; Growth Rate (U2OS; 6 h, replicate number 2): 0.59; Growth Rate (U2OS; 18 h, replicate number 2): 1
CC1(C)OC(=O)c2ccc(Nc3ncc(-c4nnco4)c(N[C@H](CO)c4ccccc4)n3)cc21 | 0.23 | -0.01 | 0.12 | -0.01 | 0.09 | -0.02 | -0.49 | -1 |  |  |  |  |  |  |  | -0.4 |  | 0.78 | 0.47 | 0.62 | Growth Rate (HEK-293T; 0 h, replicate number 1): 0.28; Growth Rate (HEK-293T; 0 h, replicate number 2): -0.28; Growth Rate (U2OS; 18 h, replicate number 1): 0.44; Growth Rate (U2OS; 18 h, replicate number 2): 0.69
CC1CCN(C(=O)[C@H](CCn2cccc2C#N)NS(=O)(=O)c2cccc3[nH]ccc23)CC1 | 0.92 |  |  |  |  |  |  |  |  |  | 0.9 |  |  |  | 0.84 | 0.6 | 0.98 | 0.91 | 0.98 | 0.97 | Growth Rate (HEK-293T; 0 h, replicate number 1): -0.16; Growth Rate (HEK-293T; 0 h, replicate number 2): 0.25; Growth Rate (U2OS; 0 h, replicate number 1): 0.73; Growth Rate (U2OS; 12 h, replicate number 2): 0.81; Growth Rate (U2OS; 18 h, replicate number 1): 0.99; Growth Rate (U2OS; 18 h, replicate number 2): 0.91
Fc1ccc(-c2nc(-c3ccc4ccccc4c3F)[nH]c2-c2ccncc2)cc1 | 0.77 | 0.57 | 0.7 | 0.41 | 0.67 | 0.47 |  | 0.58 | -0.01 | 0.47 | 0.65 | 0.61 | 0.8 | 0.76 |  |  |  |  |  | 0.94 | Growth Rate (HEK-293T; 6 h, replicate number 1): 0.81; Growth Rate (HEK-293T; 6 h, replicate number 2): 0.42; Growth Rate (U2OS; 0 h, replicate number 1): -1
